{
  "source": "paper PMC12040169",
  "about": "(PLOS Biology, 2025)",
  "data": [
    {"assay": "in vitro", "details": "human, hela cells, % viability", "units": {"viability at 28.5 h, 10 µM": "%"}, "values": [
      {"compound": "Cc1cc(C)nc(N2CCC(CC(=O)NC(C)CCN3CCCCCC3)CC2)n1", "note": "(centres unmarked) [CBK285993]", "viability at 28.5 h, 10 µM": 96.4},
      {"compound": "COc1ccc(F)c(C2NC(=O)CCC2N)c1", "note": "(centres unmarked) [CBK282905]", "viability at 28.5 h, 10 µM": 97.6},
      {"compound": "CCOC(=O)c1sc(NC(=O)c2ccccc2Br)nc1C", "note": "[CBK067745]", "viability at 28.5 h, 10 µM": 90.2},
      {"compound": "OCCNCCOc1ccc(Cl)cc1Br", "note": "[CBK265083G]", "viability at 28.5 h, 10 µM": 116},
      {"compound": "CCCC/N=C(\\NS(=O)(=O)c1ccc(C)cc1)OCC", "note": "[CBK022731]", "viability at 28.5 h, 10 µM": 106},
      {"compound": "CCOCCn1cnc2sc(C(=O)NCc3ccccn3)c(C)c2c1=O", "note": "[CBK071857]", "viability at 28.5 h, 10 µM": 93.4},
      {"compound": "COc1ccccc1-c1cnc2[nH]c(=O)n([C@@H](C)c3ccccc3)c2n1", "note": "[CBK064717]", "viability at 28.5 h, 10 µM": 93.3},
      {"compound": "Cc1ccc(-c2cc(C(=O)NC3CN4CCC3CC4)[nH]n2)o1", "note": "(centres unmarked) [CBK283276]", "viability at 28.5 h, 10 µM": 104},
      {"compound": "CC(NC(=O)Cc1ccc(-c2ccccc2)cc1)c1cccnc1", "note": "(centres unmarked) [CBK295147]", "viability at 28.5 h, 10 µM": 95},
      {"compound": "CNCC1CCCN(Cc2cn(-c3ccc(Br)cc3)nc2C)C1", "note": "(centres unmarked) [CBK304301C]", "viability at 28.5 h, 10 µM": 99.7},
      {"compound": "Cn1ncc2c(=O)n(Cc3noc(-c4ccco4)n3)cnc21", "note": "[CBK305053]", "viability at 28.5 h, 10 µM": 97.1},
      {"compound": "CC(C)n1nccc1C(=O)NC1CCN(Cc2cccc(F)c2)CC1", "note": "[CBK282596]", "viability at 28.5 h, 10 µM": 84.5},
      {"compound": "O=C(O)CN1C(=O)S/C(=C\\c2ccc([N+](=O)[O-])o2)C1=O", "note": "[CBK017858]", "viability at 28.5 h, 10 µM": 97.7},
      {"compound": "CN1C(=O)c2cccc3c(S(=O)(=O)N4CCN(S(=O)(=O)c5ccc6c7c(cccc57)C(=O)N6C)CC4)ccc1c23", "note": "[CBK269140]", "viability at 28.5 h, 10 µM": 98.2},
      {"compound": "O=C(c1c(-c2ccccc2)nnc2ccccc12)N1CCN(CCO)CC1", "note": "[CBK066882]", "viability at 28.5 h, 10 µM": 87.3},
      {"compound": "CS(=O)(=O)N(Cc1ccc(Cl)cc1)c1ccc(C(=O)Nc2ccccc2C(F)(F)F)cc1", "note": "[CBK263988]", "viability at 28.5 h, 10 µM": 101},
      {"compound": "O=C1CCN(Cc2ccccc2)CCN1Cc1cccc(F)c1", "note": "[CBK284466]", "viability at 28.5 h, 10 µM": 96.4},
      {"compound": "COc1ccc(Oc2cncc(OC3CCN(CC(N)=O)C3)n2)cc1OC", "note": "(centres unmarked) [CBK084402]", "viability at 28.5 h, 10 µM": 93.8},
      {"compound": "COc1cc(C(O)c2cc3c(cc2CO)OCO3)cc(OC)c1OC", "note": "(centres unmarked) [CBK200098]", "viability at 28.5 h, 10 µM": 100},
      {"compound": "O=C(O)/C=C\\C(=O)Nc1cccc(NC(=O)c2cccs2)c1", "note": "[CBK263952]", "viability at 28.5 h, 10 µM": 85.7},
      {"compound": "CCCCn1c(SCC(=O)NCC2(c3ccc4c(c3)OCCO4)CCCC2)n[nH]c1=O", "note": "[CBK296736]", "viability at 28.5 h, 10 µM": 99.6},
      {"compound": "COc1ccc(Nc2nc(-c3cc(C(C)C)ccc3OC)cnc2N)c(C)c1", "note": "[CBK064098]", "viability at 28.5 h, 10 µM": 87},
      {"compound": "Cn1c(CN2CCCC2)nc2cc(NC(=O)c3cccc([N+](=O)[O-])c3)ccc21", "note": "[CBK268316]", "viability at 28.5 h, 10 µM": 98.6},
      {"compound": "Cc1sc2nc(Cc3ccccc3)n(C3CCN(C(=O)c4ccco4)CC3)c(=O)c2c1C", "note": "[CBK286317]", "viability at 28.5 h, 10 µM": 97.3},
      {"compound": "CC(C)CN(Cc1ccc2c(c1)OCO2)C(=O)NCc1ccc(Cl)c(Cl)c1", "note": "[CBK159069]", "viability at 28.5 h, 10 µM": 95.3},
      {"compound": "COc1cccc(OC)c1-c1cn2ccnc2c(N[C@H](CO)C(C)C)n1", "note": "[CBK036586]", "viability at 28.5 h, 10 µM": 99.5},
      {"compound": "CN(CC1(C)COC1)C(=O)CCc1nc2ccccc2[nH]1", "note": "[CBK281719]", "viability at 28.5 h, 10 µM": 88.8},
      {"compound": "O=C(Nc1ccc2oc(-c3cccnc3)nc2c1)c1sc2cc(Cl)ccc2c1Cl", "note": "[CBK267876]", "viability at 28.5 h, 10 µM": 97.4},
      {"compound": "N#Cc1cccc(S(=O)(=O)Nc2cccc3[nH]ccc23)c1", "note": "[CBK155771]", "viability at 28.5 h, 10 µM": 60.6},
      {"compound": "O=S(=O)(c1ccc(I)cc1)n1ccc2c(N3CCNCC3)cncc21", "note": "[CBK081326C]", "viability at 28.5 h, 10 µM": 84.9},
      {"compound": "Cn1ccnc1CN1C(=O)CO[C@H]2CN(c3ncccn3)C[C@H]21", "note": "[CBK289704]", "viability at 28.5 h, 10 µM": 98.3},
      {"compound": "CSCCC(=O)N1CCC2(CCN(C(=O)c3cc(F)c(F)cc3F)C2)C1", "note": "(centres unmarked) [CBK131397]", "viability at 28.5 h, 10 µM": 99.5},
      {"compound": "CSc1cc(CC(C)(C)C)c2cccc(F)c2n1", "note": "[CBK018791]", "viability at 28.5 h, 10 µM": 99.8},
      {"compound": "COc1ccccc1C1(O)CC2CCC(C1)N2", "note": "(centres unmarked) [CBK281369]", "viability at 28.5 h, 10 µM": 81.9},
      {"compound": "Cc1nccn1CC1(O)CCN(C(=O)Cc2cccc(F)c2)CC1", "note": "[CBK282184]", "viability at 28.5 h, 10 µM": 109},
      {"compound": "COc1ccc(OC)c(-n2c(=O)[nH]c3ccccc3c2=O)c1", "note": "[CBK287825]", "viability at 28.5 h, 10 µM": 110},
      {"compound": "Cc1cc2nc(CC(=O)NN)[nH]c2cc1C", "note": "[CBK012180]", "viability at 28.5 h, 10 µM": 89.3},
      {"compound": "CC(C)C(NS(=O)(=O)c1ccc(Oc2ccccc2Cl)cc1)C(=O)O", "note": "(centres unmarked) [CBK267195]", "viability at 28.5 h, 10 µM": 100},
      {"compound": "OC(CN1CCC(Oc2ccccc2F)CC1)c1cccs1", "note": "(centres unmarked) [CBK281433]", "viability at 28.5 h, 10 µM": 95.2},
      {"compound": "O=C1CSC(c2cn(-c3ccccc3)nc2-c2ccc(Br)cc2)N1Cc1ccccc1", "note": "(centres unmarked) [CBK263146]", "viability at 28.5 h, 10 µM": 97.4},
      {"compound": "O=C1CC(c2ccccc2F)C2=C(COC2=O)N1", "note": "(centres unmarked) [CBK086692]", "viability at 28.5 h, 10 µM": 92},
      {"compound": "O=C(NCCn1nc2c(cc1=O)CCCCC2)c1ccccc1", "note": "[CBK283278]", "viability at 28.5 h, 10 µM": 85.7},
      {"compound": "CCNc1ncc(C(=O)N2CCC(Nc3cccnc3)CC2)s1", "note": "[CBK304047]", "viability at 28.5 h, 10 µM": 99.6},
      {"compound": "NC1CC(c2cc(NCc3cn4ccccc4n3)ncn2)C1", "note": "(centres unmarked) [CBK306631]", "viability at 28.5 h, 10 µM": 112},
      {"compound": "Cc1ccc(-c2nccnc2OCCn2cccc2)cc1C", "note": "[CBK106864]", "viability at 28.5 h, 10 µM": 101},
      {"compound": "CC1CN(C(=O)c2ccccc2)CC(C)N1CCCCc1ccc(F)cc1", "note": "(centres unmarked) [CBK025019C]", "viability at 28.5 h, 10 µM": 97.9},
      {"compound": "Cc1c(C(=O)N2CCC(n3cncn3)CC2)sc2cccc(F)c12", "note": "[CBK305520]", "viability at 28.5 h, 10 µM": 103},
      {"compound": "CC(=O)C(Sc1nc(NC(C)C)nc(N(C)C)n1)C(C)=O", "note": "[CBK269811]", "viability at 28.5 h, 10 µM": 90.8},
      {"compound": "CC(C)Nc1cc(OC2CCN(C)CC2)ncn1", "note": "[CBK113280]", "viability at 28.5 h, 10 µM": 83.6},
      {"compound": "Cc1nc(C(F)(F)F)ccc1COC(=O)N1CCOCC1", "note": "[CBK200122]", "viability at 28.5 h, 10 µM": 85.9},
      {"compound": "NC(=O)c1c(NC(=O)c2ccc3ncsc3c2)sc2c1CCCC2", "note": "[CBK287369]", "viability at 28.5 h, 10 µM": 94.4},
      {"compound": "Clc1ccc(CN2CCC(Oc3cncc(OCCN4CCOCC4)n3)C2)cc1Cl", "note": "(centres unmarked) [CBK084477]", "viability at 28.5 h, 10 µM": 91.4},
      {"compound": "Cc1ccc(-c2csc(NC(=O)c3cccnc3)n2)cc1", "note": "[CBK072677]", "viability at 28.5 h, 10 µM": 96.9},
      {"compound": "CC(=O)N1CCOc2ccccc21", "note": "[CBK050388]", "viability at 28.5 h, 10 µM": 92.7},
      {"compound": "O=C(CC1=C(O)C(=O)c2ccccc2C1=O)c1ccccc1", "note": "[CBK262002]", "viability at 28.5 h, 10 µM": 80.5},
      {"compound": "CN(CC(=O)NCc1ccc2c(c1)OCO2)Cc1ccc(Br)s1", "note": "[CBK295185]", "viability at 28.5 h, 10 µM": 80.4},
      {"compound": "CN1CCCN(C(=O)c2ccc(-c3nc(-c4ccc(C#N)cc4)cnc3N)cc2)CC1", "note": "[CBK107140]", "viability at 28.5 h, 10 µM": 93.9},
      {"compound": "CC(C)(CNC(=O)Cn1cccc(C(=O)NC2CCCCC2)c1=O)c1ccccc1F", "note": "[CBK286068]", "viability at 28.5 h, 10 µM": 89.6},
      {"compound": "CS(=O)(=O)N1CCN(c2ccc(NC(=O)CSc3nc(-c4ccccc4)cs3)cc2)CC1", "note": "[CBK267934]", "viability at 28.5 h, 10 µM": 91.2},
      {"compound": "Cc1cc(C)n(CCNCc2cc(-c3ccc(F)cc3)c[nH]c2=O)n1", "note": "[CBK284694]", "viability at 28.5 h, 10 µM": 89.2},
      {"compound": "N#Cc1ccc(OCCO)cc1", "note": "[CBK000723]", "viability at 28.5 h, 10 µM": 107},
      {"compound": "CC(C)[C@H](NC(=O)C1CC(=O)N(c2ccc(F)cc2)C1)C(=O)N1CCC(C(=O)O)CC1", "note": "(some centres unmarked) [CBK286669]", "viability at 28.5 h, 10 µM": 94.8},
      {"compound": "CC(Cc1cccs1)NC(=O)C(C)Cn1cccn1", "note": "(centres unmarked) [CBK283250]", "viability at 28.5 h, 10 µM": 85.4},
      {"compound": "Cn1nccc1C(=O)N1CCCC(c2cc3cccnc3[nH]2)C1", "note": "(centres unmarked) [CBK284929]", "viability at 28.5 h, 10 µM": 92.7}
    ]},
    {"assay": "in vitro", "details": "human, hela cells, % viability, bulk resorufin, single well", "units": {"viability at 28.5 h, 10 µM": "%"}, "values": [
      {"compound": "Clc1cncc(N2CCNCC2)c1", "note": "[CBK022556F]", "viability at 28.5 h, 10 µM": 117}
    ]}
  ]
}
